Assay results reported in ChEMBL document CHEMBL3526061, “Glucuronidation of edaravone by human liver and kidney microsomes: biphasic kinetics and identification of UGT1A9 as the major UDP-glucuronosyltransferase isoform” (Drug Metab Dispos, 2012).

Assays:
[1] = Drug metabolism in human kidney microsomes assessed as intrinsic clearance for drug glucuronidation per mg tissue in absence of BSA by LC-MS/MS method; type: ADME
[2] = Drug metabolism in human kidney microsomes assessed as drug glucuronidation in presence of 5 to 35 uM androsterone by LC-MS/MS method; type: ADME
[3] = Drug metabolism in human kidney microsomes assessed as drug glucuronidation in absence of BSA by LC-MS/MS method; type: ADME
[4] = Cmax in human at 0.5 mg/kg; type: ADME, organism-based; parameters: dose 0.5 mg/kg; conditions: in vivo
[5] = molecular target: T1, UDP-glucuronosyltransferase 1A9 (Homo sapiens, UniProt O60656); assay: Activity of human recombinant UGT1A9 expressed in insect cells assessed as intrinsic clearance for enzyme mediated glucuronidation per mg protein by LC-MS/MS method; type: ADME
T1 sequence (O60656 whole entry): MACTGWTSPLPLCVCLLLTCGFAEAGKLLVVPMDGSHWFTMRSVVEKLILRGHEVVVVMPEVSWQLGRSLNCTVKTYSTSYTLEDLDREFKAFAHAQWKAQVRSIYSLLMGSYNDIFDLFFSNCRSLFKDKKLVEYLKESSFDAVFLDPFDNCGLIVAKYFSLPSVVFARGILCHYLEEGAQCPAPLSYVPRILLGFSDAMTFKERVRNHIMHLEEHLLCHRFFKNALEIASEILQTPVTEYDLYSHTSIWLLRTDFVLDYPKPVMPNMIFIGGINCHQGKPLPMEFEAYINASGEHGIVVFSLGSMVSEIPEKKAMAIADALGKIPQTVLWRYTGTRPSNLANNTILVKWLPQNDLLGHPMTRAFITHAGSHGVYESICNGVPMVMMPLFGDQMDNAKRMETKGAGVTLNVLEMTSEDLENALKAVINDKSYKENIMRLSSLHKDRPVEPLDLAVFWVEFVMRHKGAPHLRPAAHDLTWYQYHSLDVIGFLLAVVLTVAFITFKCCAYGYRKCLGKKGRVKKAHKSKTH

[6] = molecular target: T2, UDP-glucuronosyltransferase 1A6 (Homo sapiens, UniProt P19224); assay: Activity of human recombinant UGT1A6 expressed in insect cells assessed as enzyme mediated glucuronidation at 12.5 uM by LC-MS/MS method; type: ADME
T2 sequence (P19224 whole entry): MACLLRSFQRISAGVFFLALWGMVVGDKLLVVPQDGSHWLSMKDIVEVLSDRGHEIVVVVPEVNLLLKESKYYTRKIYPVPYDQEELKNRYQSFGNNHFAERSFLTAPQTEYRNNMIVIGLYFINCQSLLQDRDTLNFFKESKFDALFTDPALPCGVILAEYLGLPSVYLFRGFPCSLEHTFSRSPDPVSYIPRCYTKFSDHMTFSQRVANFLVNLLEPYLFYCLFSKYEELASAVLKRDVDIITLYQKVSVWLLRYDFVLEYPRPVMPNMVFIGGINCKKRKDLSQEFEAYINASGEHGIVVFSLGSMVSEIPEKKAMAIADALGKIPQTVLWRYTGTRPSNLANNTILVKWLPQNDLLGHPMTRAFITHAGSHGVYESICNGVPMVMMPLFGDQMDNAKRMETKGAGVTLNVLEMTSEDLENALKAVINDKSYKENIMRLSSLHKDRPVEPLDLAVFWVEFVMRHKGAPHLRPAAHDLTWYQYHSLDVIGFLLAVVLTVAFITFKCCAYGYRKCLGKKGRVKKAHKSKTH

[7] = molecular target: T3, UDP-glucuronosyltransferase 1A8 (Homo sapiens, UniProt Q9HAW9); assay: Activity of human recombinant UGT1A8 expressed in insect cells assessed as enzyme mediated glucuronidation at 500 uM by LC-MS/MS method; type: ADME
T3 sequence (Q9HAW9 whole entry): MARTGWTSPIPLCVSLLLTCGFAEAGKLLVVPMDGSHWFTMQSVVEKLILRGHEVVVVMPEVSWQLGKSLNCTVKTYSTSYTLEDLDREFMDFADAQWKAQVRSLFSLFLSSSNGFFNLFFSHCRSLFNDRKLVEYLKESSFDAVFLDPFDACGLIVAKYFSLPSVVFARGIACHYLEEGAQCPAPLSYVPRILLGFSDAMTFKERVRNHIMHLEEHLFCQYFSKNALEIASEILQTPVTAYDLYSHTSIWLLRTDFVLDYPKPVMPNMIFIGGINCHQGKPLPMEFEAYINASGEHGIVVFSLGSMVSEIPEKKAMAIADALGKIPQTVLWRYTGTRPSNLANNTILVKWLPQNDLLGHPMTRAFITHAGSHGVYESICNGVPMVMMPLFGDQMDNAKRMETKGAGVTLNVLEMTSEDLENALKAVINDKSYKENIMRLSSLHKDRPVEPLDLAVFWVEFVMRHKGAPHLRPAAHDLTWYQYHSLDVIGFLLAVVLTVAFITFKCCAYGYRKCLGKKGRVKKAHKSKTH

[8] = molecular target: T4, UDP-glucuronosyltransferase 1A1 (Homo sapiens, UniProt P22309); assay: Activity of human recombinant UGT1A1 expressed in insect cells assessed as enzyme mediated glucuronidation in presence of 10 to 50 uM estradiol by LC-MS/MS method; type: ADME
T4 sequence (P22309 whole entry): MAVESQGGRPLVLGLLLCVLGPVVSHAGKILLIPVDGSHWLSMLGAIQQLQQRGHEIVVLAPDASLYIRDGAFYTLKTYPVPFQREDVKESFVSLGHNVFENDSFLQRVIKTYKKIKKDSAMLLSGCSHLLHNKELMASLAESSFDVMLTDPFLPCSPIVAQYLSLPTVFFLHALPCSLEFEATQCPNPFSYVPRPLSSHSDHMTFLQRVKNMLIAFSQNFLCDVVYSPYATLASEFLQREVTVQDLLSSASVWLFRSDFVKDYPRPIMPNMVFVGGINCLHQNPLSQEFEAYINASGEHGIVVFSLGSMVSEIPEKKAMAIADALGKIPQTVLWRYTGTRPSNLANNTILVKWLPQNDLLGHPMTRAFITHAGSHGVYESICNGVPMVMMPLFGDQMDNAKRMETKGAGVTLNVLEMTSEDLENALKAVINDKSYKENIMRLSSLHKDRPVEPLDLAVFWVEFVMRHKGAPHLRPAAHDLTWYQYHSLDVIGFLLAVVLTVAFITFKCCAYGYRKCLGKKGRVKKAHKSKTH

CL(high) [1]: 45.3 µL/min/mg
CL(low) [1]: 1.8 µL/min/mg
Drug metabolism [2]: metabolite_detected
Km ([3]; read-out: KmH): 7.4 µM
Km ([3]; read-out: KmL): 1360 µM
Cmax [4]: 6 µM
CL(high) [5]: 42.4 µL/min/mg
CL(low) [5]: 0.8 µL/min/mg
Drug metabolism [6]: metabolite_detected
Drug metabolism [7]: metabolite_detected
Drug metabolism [8]: metabolite_not_detected
SMILES: CC1=NN(c2ccccc2)C(=O)C1 [EDARAVONE]
